Consider 28 compounds from patent US7285687B2 (priority 2002, dated 2007).

The structures appear in SMILES notation.

One assay concerns the target T1, CB2 receptor (Homo sapiens, UniProt P34972).
T1 construct: expressed in transfected cells
The assay is described as follows: CB2 binding procedure, displacement of [3H]CP-55,940 from membranes of transfected CHO cells. The note with it: for CB1/CB2: ratio of CB1 Ki to CB2 Ki; for Ki: Table 6, read-out: CB2 KI. As to the method:
Membranes for CB2 binding were obtained from CHO cells. The transfected cell line was maintained in Dublecco's Modified Eagle Medium (Gibco BRL, Grand Island, N.Y.) with 10% fetal clone II (HyClone Laboratories, Inc., Logan, Utah) plus 0.3 to 0.5 mg/ml G418 (to maintain selective pressure) under 5% CO2 at 37% C. Cells were harvested with 1 mM EDTA in phosphate-buffered saline and were centrifuged at 1000×g for 5 min at 4% C. The supernatant was saved and the P1 pellet was resuspended in centrifugation buffer. Homogenization and centrifugation were repeated twice and the combined supernatant fractions were centrifuged at 40,000×g for 30 min at 4% C. The P2 pellet was resuspended in centrifugation buffer 2 (Tris HCl, 50 mM; EDTA, 1 mM; and MgCl2, 3 mM, pH 7.4) to a protein concentration of approximately 2 mg/ml. Protein concentrations were determined by the method of Bradford (1976) using Bio-Rad Protein Assay (Bio-Rad, Richmond, Calif.) and BSA standards (fatty acid free, Sigma Chemical Co., St. Louis, Mo.). The membrane preparation was divided into amounts convenient for binding assays and frozen rapidly in dry ice and stored at −80% C.
Binding was initiated by the addition of 50•g of quickly thawed P2 membranes to test tubes containing [^3H]CP-55,940 (final reaction concentration 0.5 nM), an appropriate concentration of unlabeled CP-55,940 or test drug, and sufficient quantity of assay buffer (50 mM Tris-HCl, 1 mM EDTA, 3 mM MgCl2, 5 mg/ml bovine serum albumin, pH 7.4) to bring the total incubation volume to 0.5 ml. Concentration of [^3H]CP-55,940 in saturation studies ranged from 50 to 10,000 pM. […] CP-55,940 and all cannabinoid analogs were-prepared by suspension in assay buffer from a 1 mg/ml ethanolic stock without evaporation of the ethanol (final concentration of no more than 0.4%). In competition studies, analog concentrations ranged from 0.1 nM to 10•M. After incubation at […] for 1 hr, binding was terminated by the addition of 2 ml of ice-cold wash buffer (50 mM Tris-HCl and 1 mg/ml BSA) and vacuum filtration through pre-treated filters in a 12-well sampling manifold (Millipore, Bedford, Mass.). Reaction vessels were washed once with 2 ml of ice-cold wash buffer. Filters were placed into 7-ml plastic scintillation vials (RPI Corp., Mount Prospect, Ill.) with 4 ml of Budget-Solve (RPI Corp.). After shaking for 30 min, the radioactivity present was determined by liquid scintillation spectrometry. Three reaction vessels were used for each drug concentration in each assay. The results represent the combined data of three independent experiments. All assays were performed in siliconized test tubes, which were prepared by air drying (12 hr) inverted borosilicate tubes after two rinses with a 0.1% solution of AquaSil (Pierce, Rockford, Ill.). The GF/C glass-fiber filters (2.4 cm, Baxter, McGaw Park, Ill.) were pre-treated in a 0.1% solution of pH 7.4 polyethylenimine (Sigma Chemical Co.) for at least 6 hr.
(§1) In addition, multiple linear regression was used to calculate the overall degree of relationship between CB1 binding affinity and potency in the mouse measures for all active cannabinoids. […] Ki values for CB1 and CB2 binding were obtained from Scatchard displacement analysis as determined via EBDA program of the KELL software package (Biosoft, Milltown, N.J.).
In general terms: Displacement assays read how much labelled ligand stays bound in the presence of the test substance.

The next assay has as its target T2, CB1 receptor (Rattus norvegicus, UniProt P20272).
T2 construct: whole brain was homogenized and centrifuged; from tissue; host or cells: whole brain of male Sprague-Dawley rats, P2 membrane fraction
The assay is described as follows: CB1 binding procedure, displacement of [3H]CP 55,940 from rat whole-brain P2 membranes. As to conditions: for Ki: Table 6, read-out: CB1 KI. As to the method:
Male ICR mice (25-32 g), obtained from Harlan (Dublin, Va.), were housed in groups of five. All animals were kept in a temperature-controlled (20-22° C.) environment with a 12-hour light-dark cycle (lights on at 7 a.m.). Separate mice were used for testing each drug dose in the in vivo behavioral procedures. Brain tissue for binding studies was obtained from male Sprague-Dawley rats (150-200 g) purchased from Harlan Laboratories (Dublin, Va.).
The methods used for tissue preparation and binding have been described previously (Compton et al., 1993) and are similar to those described by Devane et al. (1988). All assays, as described briefly below, were performed in triplicate, and the results represent the combined data from three to six individual experiments.
Following decapitation and rapid removal of the brain, whole brain was homogenized and centrifuged. The resulting pellet was termed P1. The supernatant was saved and combined with the two subsequent supernatants obtained from washing of the P1 pellet. The combined supernatant fractions were centrifuged, resulting in the P2 pellet. After further incubation and centrifuging, this pellet was resuspended in assay buffer to a protein concentration of approximately 2 mg/ml. The membrane preparation was quickly frozen in a bath solution of dry ice and 2-methylbutane (Sigma Chemical Co., St. Louis, Mo.), then stored at −80° C. for no more than 2 weeks. Prior to performing a binding assay an aliquot of frozen membrane was rapidly thawed and protein values determined by the method of Bradford (1976).
Binding was initiated by the addition of 150•g of P2 membrane to test tubes containing 1 nM of [^3H] CP 55,940 (79 Ci/mmol) and a sufficient quantity of buffer to bring the total incubation volume to 1 ml. […] Following incubation at 30° C. for 1 hr, binding was terminated by addition of ice cold buffer and vacuum filtration through pretreated filters in a 12-well sampling manifold (Millipore, Bedford, Mass.). After washing, filters were placed into plastic scintillation vials (Packard, Downer Grove, Ill.) and shaken. The quantity of radioactivity present was determined by liquid scintillation spectrometry.
as §1

T1 sequence (P34972 whole entry): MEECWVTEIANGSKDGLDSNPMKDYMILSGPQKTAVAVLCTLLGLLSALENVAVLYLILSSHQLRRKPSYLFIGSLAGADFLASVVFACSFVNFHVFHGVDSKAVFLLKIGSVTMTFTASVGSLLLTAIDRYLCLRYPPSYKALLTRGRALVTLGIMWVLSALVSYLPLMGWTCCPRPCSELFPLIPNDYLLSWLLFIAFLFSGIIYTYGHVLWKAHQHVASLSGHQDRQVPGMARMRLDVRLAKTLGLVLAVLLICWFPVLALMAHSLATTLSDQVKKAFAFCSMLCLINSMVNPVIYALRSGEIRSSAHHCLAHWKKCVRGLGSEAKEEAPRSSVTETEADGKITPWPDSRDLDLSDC
T2 sequence (P20272 whole entry): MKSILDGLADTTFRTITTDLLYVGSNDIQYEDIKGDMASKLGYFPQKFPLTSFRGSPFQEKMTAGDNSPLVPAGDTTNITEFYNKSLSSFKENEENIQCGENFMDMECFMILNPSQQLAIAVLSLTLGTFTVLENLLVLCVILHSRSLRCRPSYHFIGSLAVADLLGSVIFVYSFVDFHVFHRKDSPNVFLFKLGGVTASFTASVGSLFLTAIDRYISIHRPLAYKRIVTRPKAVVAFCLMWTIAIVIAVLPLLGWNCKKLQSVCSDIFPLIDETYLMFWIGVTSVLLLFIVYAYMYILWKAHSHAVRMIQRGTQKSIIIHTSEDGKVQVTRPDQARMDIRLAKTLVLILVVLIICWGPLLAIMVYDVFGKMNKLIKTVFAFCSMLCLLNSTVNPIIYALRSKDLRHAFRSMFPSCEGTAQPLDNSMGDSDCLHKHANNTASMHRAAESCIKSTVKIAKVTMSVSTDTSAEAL

For `CCCCCCC(C)(C)c1cc(O)c(C2CCCC(C)C2)c(O)c1` (mixture of isomers) [O-1657, 2-(3-Methylcyclohexyl)-5-(1′,1′-dimethylheptyl)-resorcinol], the CB1/CB2 at CB2 receptor worked out at 17. With `CCCCCCC(C)(C)c1cc(O)c(C2CCCC(C)C2)c(O)c1` (single isomer, unassigned) [O-1798B, 2-(3-Methylcyclohexyl)-5-(1′,1′-dimethylheptyl)-resorcinolisomer B], on CB2 receptor, the CB1/CB2 is 8. Further, on CB1 receptor, the Ki was found to be 4.33 ± 0.58 nM. With `CCCCCCC(C)(C)c1cc(OC)c(C2(O)CCC(O)CC2)c(OC)c1` (single isomer, unassigned) [O-2116A, 1-[4-(1,1-Dimethyl-heptyl)-2,6-dimethoxy-phenyl]-cyclohexane-1,4-olol (A)], the CB1/CB2 at CB2 receptor is recorded as 21. Regarding `C=C(C)[C@@H]1CCC(C)=CC1c1c(O)cccc1O` (single isomer, unassigned; (-)) [O-1847, (-)-2-(3-3,4-trans-p-menthadien-(1,8)-yl)-resorcinol], the Ki on CB1 receptor was over 10000 nM.

For the compound `C=C(C)[C@@H]1CCC(C)=CC1c1ccc(O)cc1O` (single isomer, unassigned; (-)) [O-1848, (-)-4-(3-3,4-trans-p-menthadien-(1,8)-yl)-resorcinol], the Ki on CB1 receptor is over 10000 nM. Same read-out and setting: the same measure for `C=C(C)[C@@H]1CCC(C)=CC1c1c(O)c(I)c(C)c(I)c1O` (single isomer, unassigned; (-)) [O-1868, (-)-2-(3-3,4-trans-p-menthadien-(1,8)-yl)-1,6-dipdoorcinol]: over 10000 nM. As to `CCCCCCC(C)(C)c1cc(O)c(C2CCCC(C)C2)c(O)c1` (single isomer, unassigned; isomer a) [O-1797A, 2-(3-Methylcyclohexyl)-5-(1′,1′-dimethylheptyl-resorcinol isomer A], at CB2 receptor, the inhibition constant (Ki) was 0.44 ± 0.03 nM and the CB1/CB2 came out at 12. Take `CCCCCCC(C)(C)c1cc(O)c([C@H]2CCCC(C)C2)c(O)c1` (stereo in doubt) [O-1826, 2-(3R-Methylcyclohexyl)-5-(1′,1′-dimethylheptyl)-resorcinol]: the CB1/CB2 at CB2 receptor stood at 50. With `CCCCCCC(C)(C)c1cc(OC)c(C2(O)CCC[C@@H](C)C2)c(OC)c1` (stereo in doubt) [compound 2137, 1-[4-(1,1-Dimethyl-heptyl)-2,6-dimethoxy-phenyl]-3-methyl-cyclohexanol], the inhibition constant Ki was determined as 11 ± 2.18 nM on CB2 receptor and 2670 ± 145 nM at CB1 receptor. Regarding `CCCCCCC(C)(C)c1cc(O)c(C2CCCCC2)c(O)c1` [O-1422, Cyclohexyl-5-(1′,1′-dimethylheptyl)-resorcinol], the CB1/CB2 on CB2 receptor was determined as 7. Still for that read-out and setting: with `CCCCCCC(C)(C)c1cc(O)c(C2=CCCCC2)c(O)c1` [O-1423] the figure was 3. For the compound `CCCCCCC(C)(C)c1cc(O)c(C2CCSCC2)c(O)c1` [O-1425], the “fold decrease in CB2 affinity” value on CB2 receptor (compared to O-1422) turned out to be 8 fold. At CB2 receptor, the CB1/CB2 was found to be 13. On CB1 receptor (compared to O-1422), the “fold decrease in CB1 affinity” value is given as 14 fold. `CCCC(C)(C)c1ccc(-c2cc(C)ccc2C(C)C)c(O)c1` [O-1532, 3-1′,1′-Dimethylbutyl-6-(2-isopropyl-5-methyl-phenyl)-phenol]: at CB2 receptor, the CB1/CB2 amounted to 8. Still for that read-out and setting: with `CCCCCCC(C)(C)c1ccc(-c2cc(CO)ccc2C(C)C)c(O)c1` [O-1601, 3-1′,1′-Dimethylhepyl-6-(2-isopropyl-5-hydroxy-methylphenyl)-phenol] the figure was 2.

As for `CCCCCCC(C)(C)c1cc(O)c(C2CCCCC2C)c(O)c1` (centres unmarked) [O-1658, 2-(2-Methylcyclohexyl)-5-(1′,1′-dimethylheptyl)-resorcinol], on CB2 receptor, the CB1/CB2 is on record as 16. Still for that read-out and setting: the same measure for `CCCCCCC(C)(C)c1cc(O)c(C2CCC(C)CC2)c(O)c1` (centres unmarked) [O-1659, 2-(4-Methylcyclohexyl)-5-(1′,1′-dimethylheptyl)-resorcinol]: 9. In the case of `CCCCCCC(C)(C)c1cc(O)c(C2C3CC4CC(C3)CC2C4)c(O)c1` (centres unmarked) [O-1660, 2-(2-Adamantanyl)-5-(1′,1′-di-methylheptyl)-resorcinol], on CB2 receptor, the Ki worked out at 3.16 ± 0.81 nM and the CB1/CB2 is 2. At CB1 receptor, the Ki stood at 7.5 ± 1.2 nM. On to `CCCCCCC(C)(C)c1cc(O)c(C2CCC(c3ccccc3)CC2)c(O)c1` (centres unmarked) [O-1663, 2-(4-Phenylcyclohexyl)-5-(1′,1′-dimethylheptyl)-resorcinol], for which the CB1/CB2 at CB2 receptor came out at 16.

As to `CCCC(C)(C)c1cc(O)c(C2CCCC(C)C2)c(O)c1` (centres unmarked) [O-1890, 2-(3-Methylcyclohexyl)-5-(1′,1′-dimethylbutyl)-resorcinol], the CB1/CB2 on CB2 receptor turned out to be 7. Consider `CCCCCCC(C)(C)c1cc(OC)c(C2CCCC(C)C2)c(OC)c1` (centres unmarked) [O-1999, 5-(1,1-Dimethyl-heptyl)-1,3-dimethoxy-2-(3-methyl-cyclohexyl)-benzeno], for which the “fold reduction in affinity for CB2 receptors” value on CB2 receptor (compared to O-1657) was about 600 fold. In the case of `CCCCCCC(C)(C)c1cc(OC)c(C2(O)CCCC(C)(C)C2)c(OC)c1` (centres unmarked) [O-2068, 1-[4-(1,1-Dimethylheptyl)-2,6-dimethoxyphenyl]3,3-dimethyl-cyclohexanol], the CB1/CB2 at CB2 receptor stood at 47. The same measure, in the same setting: with `CCCCCCC(C)(C)c1cc(OC)c(C2(O)CCCCC2)c(OC)c1` [O-2072, 1-[4-(1,1-Dimethylheptyl)-2,6-dimethoxyphenyl]-cyclohexanol] the figure was 55. Still for that read-out and setting: with `CCCCCCC(C)(C)c1cc(OCC)c(C2(O)CCCC(C)C2)c(OCC)c1` (centres unmarked) [O-2090, 1-[4-(1,1-Dimethylheptyl)-2,6-dietlphenyl]-3-methyl cyclohexane-1-ol] the figure was 10; with `CCCCCCC(C)(C)c1cc(OC)c(C2(O)CCCCCC2)c(OC)c1` [O-2091, 1-[4-(1,1-Dimethylheptyl)-2,6-dimephenyl]-cycloheptan-1-ol], 50; with `CCCCCCC(C)(C)c1cc(OC)c(C2(O)CCC3(CC2)OCCO3)c(OC)c1` [O-2092, 8-[4-(1,1-Dimethylheptyl)-2,6-dimephenyl]-1,4-dioxaspiro[4,5]decan-], 36.

As for `CCCCCCC(C)(C)c1cc(OC)c(C2=CCC(=O)CC2)c(OC)c1` [O-2114, 4-[4-(1,1-Dimethyl-heptyl)-2,6-dimethoxy-phenyl]-cyclohex-3-enone], the CB1/CB2 at CB2 receptor is recorded as 5.

Take `CCCCCCC(C)(C)c1cc(OC)c(C2(O)CC(C)CC(O)C2)c(OC)c1` (centres unmarked) [O-2121]: the CB1/CB2 on CB2 receptor worked out at 20. Still for that read-out and setting: the same measure for `CCCCCCC(C)(C)c1cc(OC)c(C23CCC(O)CC2O3)c(OC)c1` (centres unmarked) [O-2122, 6-[4-(1,1-Dimethyl-heptyl)-2,6-dimethoxy-phenyl]-7-oxa-bicyclo[4 1 0]heptan-3-ol]: 4.

What is called Ki is a measure of affinity in units of concentration, obtained from inhibition or displacement.
